IC50 data for 61 compounds are collected here from patent US9718790B2, “Triazine derivative and pharmaceutical composition having an analgesic activity comprising the same” (SHIONOGI & CO., LTD., priority 2010, dated 2017).

Structures are written as SMILES.

What is called IC50 is the concentration at which inhibition is half-maximal.

This assay concerns the target human P2X3 receptor (Homo sapiens (Human), UniProt P56373). Nature of the assay: Evaluation of human P2X3 receptor inhibitory activity (Fluo-3 calcium fluorescence, FDSS 3000, ATP stimulation).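 Also: stimulus was 50 nM ATP with fluorescence followed for 3 min, and the response per well was peak post-ATP fluorescence divided by the reading at measurement start.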 It counts as cell-based. Particulars: C6BU-1 cells stably expressing human P2X3 receptor.

human P2X3 receptor, sequence (P56373 whole entry): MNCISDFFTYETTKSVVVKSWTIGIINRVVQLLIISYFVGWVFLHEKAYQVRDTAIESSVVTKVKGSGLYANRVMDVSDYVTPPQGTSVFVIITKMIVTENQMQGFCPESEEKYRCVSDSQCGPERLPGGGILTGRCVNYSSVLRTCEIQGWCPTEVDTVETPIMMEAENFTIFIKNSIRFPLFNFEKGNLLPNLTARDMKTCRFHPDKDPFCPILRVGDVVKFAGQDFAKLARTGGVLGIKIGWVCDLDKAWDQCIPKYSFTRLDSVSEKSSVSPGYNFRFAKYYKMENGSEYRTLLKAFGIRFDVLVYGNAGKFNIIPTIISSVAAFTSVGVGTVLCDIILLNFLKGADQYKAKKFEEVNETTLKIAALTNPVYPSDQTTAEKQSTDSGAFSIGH

In the case of `CNC(=O)Cn1c(=O)[nH]/c(=N\c2ccc(Oc3ccc(O)nc3)cc2)n(Cc2ccc(Cl)cc2)c1=O` [Compound I-1901], the IC50 (Fluo-3 fluorescence, FDSS 3000) amounted to 15 nM. Same read-out and setting: as for `O=C(Cn1c(=O)[nH]/c(=N\c2ccc(Oc3ccc(O)nc3)cc2)n(Cc2ccc(Cl)cc2)c1=O)NCCO` [Compound I-1902], the figure is 8 nM. The same measure, in the same setting: with `COC(=O)Cn1c(=O)[nH]/c(=N\c2ccc(Oc3ccnc(O)c3)cc2)n(Cc2ccc(Cl)cc2)c1=O` [Compound I-1903] the figure was 4 nM; with `COC(=O)Cn1c(=O)[nH]/c(=N\c2ccc(Oc3ccc(C)nc3)cc2)n(Cc2ccc(Cl)cc2)c1=O` [Compound I-1904], 8 nM. The same measure, in the same setting: as for `Cc1cc(/N=c2\[nH]c(=O)n(CC(CO)CO)c(=O)n2Cc2ccc(Cl)cc2)ccc1OC(C)C` [Compound I-1905], the figure is 5 nM.

As to `CCOc1ccc(/N=c2\[nH]c(=O)n(CC(CO)CO)c(=O)n2Cc2ccc(Cl)cc2)cc1Cl` [Compound I-1906], the IC50 (Fluo-3 fluorescence, FDSS 3000) stood at 6 nM. Same read-out and setting: with `CCOc1ccc(/N=c2\[nH]c(=O)n(C[C@H](O)CO)c(=O)n2Cc2ccc(Cl)cc2)cc1Cl` [Compound I-1907] the figure was 8 nM.

On to `C[C@@H](Oc1ccc(/N=c2\[nH]c(=O)n(CCC(=O)O)c(=O)n2Cc2ccc(Cl)cc2)cc1)C(F)(F)F` [Compound I-1908], for which the IC50 was found to be 70 nM. Same read-out and setting: as for `CCOC(=O)CCn1c(=O)[nH]/c(=N\c2ccc(OC(C)C)c(F)c2)n(CC2CCCCCCC2)c1=O` [Compound I-1911], the figure is 253 nM. The same measure, in the same setting: with `CNC(=O)CCn1c(=O)[nH]/c(=N\c2ccc(OCC3CC3)cc2)n(Cc2ccc(Cl)cc2)c1=O` [Compound I-1912] the figure was 29 nM; with `CNC(=O)CCn1c(=O)[nH]/c(=N\c2ccc(OC3CCC3)cc2)n(Cc2ccc(Cl)cc2)c1=O` [Compound I-1913], 19 nM; with `NC(=O)CCn1c(=O)[nH]/c(=N\c2ccc(OCC3CC3)cc2)n(Cc2ccc(Cl)cc2)c1=O` [Compound I-1914], 46 nM. Turning to `NC(=O)CCn1c(=O)[nH]/c(=N\c2ccc(OC3CCC3)cc2)n(Cc2ccc(Cl)cc2)c1=O` [Compound I-1915], the IC50 is 23 nM. Still for that read-out and setting: with `CC(C)Oc1ccc(/N=c2\[nH]c(=O)n(CCC(=O)O)c(=O)n2CC2CCCCCCC2)cc1F` [Compound I-1916] the figure was 995 nM; with `O=c1[nH]/c(=N\c2ccc(OCC3CC3)cc2)n(Cc2ccc(Cl)cc2)c(=O)n1CCCO` [Compound I-1917], 23 nM; with `O=c1[nH]/c(=N\c2ccc(OC3CCC3)cc2)n(Cc2ccc(Cl)cc2)c(=O)n1CCCO` [Compound I-1918], 12 nM. The same measure, in the same setting: as for `COC(=O)c1cccc(Oc2ccc(/N=c3\[nH]c(=O)[nH]c(=O)n3Cc3ccc(Cl)cc3)cc2)c1` [Compound I-1919], the figure is 214 nM; as for `O=C(O)c1cccc(Oc2ccc(/N=c3\[nH]c(=O)[nH]c(=O)n3Cc3ccc(Cl)cc3)cc2)c1` [Compound I-1923], 84 nM.

Turning to `CCn1c(=O)[nH]/c(=N\c2ccc(Oc3cccc(C(N)=O)c3)cc2)n(Cc2ccc(Cl)cc2)c1=O` [Compound I-1925], the IC50 is 6 nM. The same measure, in the same setting: with `Cc1cc(Oc2ccc(/N=c3\[nH]c(=O)n(CC(N)=O)c(=O)n3Cc3ccc(Cl)cc3)cc2)ccn1` [Compound I-1926] the figure was 10 nM; with `CNC(=O)Cn1c(=O)[nH]/c(=N\c2ccc(Oc3ccnc(C)c3)cc2)n(Cc2ccc(Cl)cc2)c1=O` [Compound I-1927], 7 nM. Same read-out and setting: with `Cc1cc(Oc2ccc(/N=c3\[nH]c(=O)n(CC(=O)NCCO)c(=O)n3Cc3ccc(Cl)cc3)cc2)ccn1` [Compound I-1928] the figure was 5 nM. The same measure, in the same setting: with `COC(=O)Cn1c(=O)[nH]/c(=N\c2ccc(OCC3CC3)cc2)n(Cc2ccc(Cl)cc2)c1=O` [Compound I-1930] the figure was 29 nM; with `CCOC(=O)CCn1c(=O)[nH]/c(=N\c2ccc3[nH]c(C)c(C)c3c2)n(Cc2ccc(Cl)cc2)c1=O` [Compound I-1931], 9 nM.

For `O=C(O)Cn1c(=O)[nH]/c(=N\c2ccc(Oc3ccnc(O)c3)cc2)n(Cc2ccc(Cl)cc2)c1=O` [Compound I-1932], the IC50 was 95 nM.

Consider `Cc1ccc(Oc2ccc(/N=c3\[nH]c(=O)n(CC(=O)O)c(=O)n3Cc3ccc(Cl)cc3)cc2)cn1` [Compound I-1934], for which the IC50 stood at 198 nM. The same measure, in the same setting: with `Cc1[nH]c2ccc(/N=c3\[nH]c(=O)n(CC(CO)CO)c(=O)n3Cc3ccc(Cl)cc3)cc2c1C` [Compound I-1935] the figure was 9 nM; with `CCOC(=O)CCn1c(=O)[nH]/c(=N\c2ccc(Oc3cccc(F)c3)cc2)n(Cc2ccc(Cl)cc2)c1=O` [Compound I-1937], 22 nM; with `CCOC(=O)c1cc2cc(/N=c3\[nH]c(=O)n(C[C@H](C)C(=O)OC)c(=O)n3Cc3ccc(Cl)cc3)ccc2o1` [Compound I-1938], 312 nM.

`COC(=O)Cn1c(=O)[nH]/c(=N\c2ccc(OC3CCC3)cc2)n(Cc2ccc(Cl)cc2)c1=O` [Compound I-1939]: the IC50 is 30 nM. With `NC(=O)Cn1c(=O)[nH]/c(=N\c2ccc(OCC3CC3)cc2)n(Cc2ccc(Cl)cc2)c1=O` [Compound I-1940], the IC50 was determined as 55 nM. On the same count and under the same terms, as for `CCn1c(=O)[nH]/c(=N\c2ccc(Oc3cc(C(=O)OC)on3)cc2)n(Cc2ccc(Cl)cc2)c1=O` [Compound I-1941], the figure is 5 nM; as for `CNC(=O)Cn1c(=O)[nH]/c(=N\c2ccc(OCC3CC3)cc2)n(Cc2ccc(Cl)cc2)c1=O` [Compound I-1942], 49 nM; as for `O=C(O)Cn1c(=O)[nH]/c(=N\c2ccc(OC3CCC3)cc2)n(Cc2ccc(Cl)cc2)c1=O` [Compound I-1943], 258 nM. The same measure, in the same setting: with `Cc1ccc(Oc2ccc(/N=c3\[nH]c(=O)n(CC(N)=O)c(=O)n3Cc3ccc(Cl)cc3)cc2)cn1` [Compound I-1944] the figure was 11 nM; with `CNC(=O)Cn1c(=O)[nH]/c(=N\c2ccc(Oc3ccc(C)nc3)cc2)n(Cc2ccc(Cl)cc2)c1=O` [Compound I-1945], 8 nM; with `NC(=O)Cn1c(=O)[nH]/c(=N\c2ccc(OC3CCC3)cc2)n(Cc2ccc(Cl)cc2)c1=O` [Compound I-1946], 25 nM. As for `CCc1cc2cc(/N=c3\[nH]c(=O)n(C[C@H](C)C(=O)OC)c(=O)n3Cc3ccc(Cl)cc3)ccc2s1` [Compound I-1947], the IC50 is 353 nM. In addition, the IC50 (Fluo-3 fluorescence, FDSS 3000) amounted to 677 nM. In the case of `CNC(=O)Cn1c(=O)[nH]/c(=N\c2ccc(OC3CCC3)cc2)n(Cc2ccc(Cl)cc2)c1=O` [Compound I-1948], the IC50 was 22 nM. For the compound `Cc1[nH]c2ccc(/N=c3\[nH]c(=O)n(CCCO)c(=O)n3Cc3ccc(Cl)cc3)cc2c1C` [Compound I-1949], the IC50 worked out at 5 nM.

As for `Cc1[nH]c2ccc(/N=c3\[nH]c(=O)n(CCC(=O)O)c(=O)n3Cc3ccc(Cl)cc3)cc2c1C` [Compound I-1950], the IC50 was determined as 29 nM. The same measure, in the same setting: as for `O=C(O)CCn1c(=O)[nH]/c(=N\c2ccc(Oc3cccc(F)c3)cc2)n(Cc2ccc(Cl)cc2)c1=O` [Compound I-1951], the figure is 25 nM. Take `C[C@@H](Cn1c(=O)[nH]/c(=N\c2ccc3oc(C(=O)O)cc3c2)n(Cc2ccc(Cl)cc2)c1=O)C(=O)O` [Compound I-1952]: the IC50 was found to be 781 nM.

As for `Cc1ccc(Cn2c(=O)n(CCCO)c(=O)[nH]/c2=N\c2ccc(O[C@H](C)C(F)(F)F)cc2)cc1` [Compound I-1953], the IC50 came out at 16 nM. As to `Cc1cc(Oc2ccc(/N=c3\[nH]c(=O)n(CC(CO)CO)c(=O)n3Cc3ccc(Cl)cc3)cc2)ccn1` [Compound I-1954], the IC50 stood at 5 nM.

Regarding `Cc1cc(Oc2ccc(/N=c3\[nH]c(=O)[nH]c(=O)n3Cc3ccc(Cl)cc3)cc2)ccn1` [Compound I-1955], the IC50 was found to be 97 nM. Same read-out and setting: as for `C[C@@H](Oc1ccc(/N=c2\[nH]c(=O)n(CCC(N)=O)c(=O)n2Cc2ccc(Cl)cc2)cc1)C(F)(F)F` [Compound I-1956], the figure is 34 nM.

For the compound `CNC(=O)CCn1c(=O)[nH]/c(=N\c2ccc(O[C@H](C)C(F)(F)F)cc2)n(Cc2ccc(Cl)cc2)c1=O` [Compound I-1957], the IC50 is 22 nM.

Regarding `C[C@@H](Oc1ccc(/N=c2\[nH]c(=O)n(CCC(=O)NCC(F)(F)F)c(=O)n2Cc2ccc(Cl)cc2)cc1)C(F)(F)F` [Compound I-1958], the IC50 is 16 nM.

As for `C[C@@H](Oc1ccc(/N=c2\[nH]c(=O)n(CC(N)=O)c(=O)n2Cc2ccc(Cl)cc2)cc1)C(F)(F)F` [Compound I-1959], the IC50 amounted to 65 nM. Still for that read-out and setting: as for `CNC(=O)Cn1c(=O)[nH]/c(=N\c2ccc(O[C@H](C)C(F)(F)F)cc2)n(Cc2ccc(Cl)cc2)c1=O` [Compound I-1960], the figure is 54 nM. On the same count and under the same terms, as for `C[C@@H](Oc1ccc(/N=c2\[nH]c(=O)n(CC(=O)NCC(F)(F)F)c(=O)n2Cc2ccc(Cl)cc2)cc1)C(F)(F)F` [Compound I-1961], the figure is 13 nM; as for `O=c1[nH]c(=O)n(Cc2ccc(Cl)cc2)/c(=N/c2ccc(Oc3ccnc(CO)c3)cc2)[nH]1` [Compound I-1962], 65 nM; as for `CCn1c(=O)[nH]/c(=N\c2ccc(Oc3cc(C(=O)O)on3)cc2)n(Cc2ccc(Cl)cc2)c1=O` [Compound I-1963], 13 nM. On the same count and under the same terms, with `CCc1cc2cc(/N=c3\[nH]c(=O)n(C[C@H](C)C(=O)O)c(=O)n3Cc3ccc(Cl)cc3)ccc2s1` [Compound I-1964] the figure was 277 nM.

In the case of `CC1(C)OCC(Cn2c(=O)[nH]/c(=N\c3ccc(OC4CCC4)cc3)n(Cc3ccc(Cl)cc3)c2=O)CO1` [Compound I-1965], the IC50 was found to be 3 nM. As for `Cc1[nH]c2ccc(/N=c3\[nH]c(=O)n(CCC(N)=O)c(=O)n3Cc3ccc(Cl)cc3)cc2c1C` [Compound I-1966], the IC50 was 11 nM.

Consider `CNC(=O)CCn1c(=O)[nH]/c(=N\c2ccc3[nH]c(C)c(C)c3c2)n(Cc2ccc(Cl)cc2)c1=O` [Compound I-1967], for which the IC50 worked out at 8 nM.

On to `CCn1c(=O)[nH]/c(=N\c2ccc(Oc3cc(CO)on3)cc2)n(Cc2ccc(Cl)cc2)c1=O` [Compound I-1968], for which the IC50 amounted to 15 nM. As for `CCn1c(=O)[nH]/c(=N\c2ccc(Oc3ccc(C(=O)O)cc3)cc2)n(Cc2ccc(Cl)cc2)c1=O` [Compound I-1969], the IC50 stood at 21 nM. For the compound `C[C@H](CO)Cn1c(=O)[nH]/c(=N\c2ccc3oc(CO)cc3c2)n(Cc2ccc(Cl)cc2)c1=O` [Compound I-1970], the IC50 is 82 nM.
